# Measurements published in patent US20220259196A1, “2-AMINOPYRIMIDINE COMPOUND AND USES THEREOF” (Shenyang Pharmaceutical University, priority 2019, published 2022).
# Legend:
# JAK2 = JAK2 (Homo sapiens, UniProt O60674); assay: in vitro JAK2 kinase activity test, Mobility Shift Assay; type: biochemical; conditions: compound concentration 0.1 μM; read-out: Percentage of inhibition against JAK2 at 0.1 μM
# Procedure: The in vitro JAK2 and FLT3 kinase activity test was performed on the compounds of the 2-aminopyrimidine backbone of the above formula I (concentration 0.1 μM) according to the present invention using Mobility Shift Assay. The control compounds Pacritinib and Fedratinib were prepared by our research group.
# (§1) The kinase buffer was composed of 50 mM HEPEs (pH 7.5) and 0.0015% BRIJ-35. The stop buffer contained a mixture of 100 mM HEPES (pH 7.5), 0.015% BRIJ-35, 0.2% coating reagent #3 and 50 mM EDTA. The compound to be tested was diluted with 100% DMSO to 50 times the highest concentration required in the reaction. The dilution of compound to be tested (100 μL) was transferred to the wells of a 96-well plate. […] was added to two wells of the plate as a control group and the plate was marked as the source plate. 10 μL of compound was transferred from the source plate to a new 96-well plate to prepare an intermediate plate. In the intermediate plate, an additional 90 μL of kinase buffer was added to each well. The intermediate plate was shaken for 10 minutes, and then 5 μL of each well of the 96-well intermediate plate was copied to a 384-well plate as an analysis plate. The prepared enzyme solution was added to each well of the 384-well plate, then incubated at room temperature for 10 minutes, and then 10 μL of the prepared peptide solution (FAM-labeled peptide and ATP in kinase-based buffer) was added. The sample was incubated at 28° C. for 1 hours, and then 25 μL of buffer was added. The conversion data from the Caliper program was copied and converted to the inhibition rate.
# (§2) Inhibition rate (%)=(max−conversion)/(max−min)×100.
# [1] = test system: human erythroleukemia cells HEL; assay: anti-tumor cell proliferation activity (CCK-8), HEL; type: cell-based; conditions: 72 hours incubation
# Procedure: (§3) The compound of the 2-aminopyrimidine skeleton of the above formula I according to the present invention was tested in vitro to inhibit the activity of human erythroleukemia cells HEL and human myeloid monocytic leukemia cells Molm-13. The control compounds Pacritinib and Fedratinib were prepared by our research group.
# (§4) After the cells are resuscitated and passaged 2-3 times to stable state, 10 μL of the cell suspension was pipetted to a cell counting plate for counting, and the cell concentration was adjusted to 10×10^4 cells/mL. No cell solution was added to the outermost wells of the 96-well plate, and 100 μL of cell suspension was added to each of the remaining wells. 100 μL of medium was added to wells B2-B7 as a control group, and other wells were added with different concentrations of the compounds to be tested. After 72 hours of incubation in the incubator, 200 μL, of fresh medium was added to well A1 as a blank group, and then 20 µL of CCK-8 solution was added to each well, and the incubation continued for 4 hours. The 96-well plate was shaken at room temperature for 3 minutes, and then the absorbance at 450 nm wavelength was measured with a microplate reader, and the inhibition rate of cell growth was calculated according to the following formula:
# (§5) Inhibition rate (%)=[(A control−A addition)/(A control−A blank)]×100
# (§6) IC50 is the drug concentration required to inhibit half of the cell growth. According to the results of drug concentration and inhibition rate, GraphPad Prism version 5 software is used to calculate IC50 through the dose-effect curve.
# [2] = test system: human myeloid monocytic leukemia cells Molm-13; assay: anti-tumor cell proliferation activity (CCK-8), Molm-13; type: cell-based; conditions: Molm-13 cells, 72 hours incubation
# Procedure: as §3, §4, §5, §6
# FLT3 = biological target: T1, FLT3 (Homo sapiens, UniProt P36888); assay: in vitro FLT3 kinase activity test, Mobility Shift Assay; type: biochemical; conditions: compound concentration 0.1 μM; read-out: Percentage of inhibition against FLT3 at 0.1 μM
# T1 sequence (P36888 27-993): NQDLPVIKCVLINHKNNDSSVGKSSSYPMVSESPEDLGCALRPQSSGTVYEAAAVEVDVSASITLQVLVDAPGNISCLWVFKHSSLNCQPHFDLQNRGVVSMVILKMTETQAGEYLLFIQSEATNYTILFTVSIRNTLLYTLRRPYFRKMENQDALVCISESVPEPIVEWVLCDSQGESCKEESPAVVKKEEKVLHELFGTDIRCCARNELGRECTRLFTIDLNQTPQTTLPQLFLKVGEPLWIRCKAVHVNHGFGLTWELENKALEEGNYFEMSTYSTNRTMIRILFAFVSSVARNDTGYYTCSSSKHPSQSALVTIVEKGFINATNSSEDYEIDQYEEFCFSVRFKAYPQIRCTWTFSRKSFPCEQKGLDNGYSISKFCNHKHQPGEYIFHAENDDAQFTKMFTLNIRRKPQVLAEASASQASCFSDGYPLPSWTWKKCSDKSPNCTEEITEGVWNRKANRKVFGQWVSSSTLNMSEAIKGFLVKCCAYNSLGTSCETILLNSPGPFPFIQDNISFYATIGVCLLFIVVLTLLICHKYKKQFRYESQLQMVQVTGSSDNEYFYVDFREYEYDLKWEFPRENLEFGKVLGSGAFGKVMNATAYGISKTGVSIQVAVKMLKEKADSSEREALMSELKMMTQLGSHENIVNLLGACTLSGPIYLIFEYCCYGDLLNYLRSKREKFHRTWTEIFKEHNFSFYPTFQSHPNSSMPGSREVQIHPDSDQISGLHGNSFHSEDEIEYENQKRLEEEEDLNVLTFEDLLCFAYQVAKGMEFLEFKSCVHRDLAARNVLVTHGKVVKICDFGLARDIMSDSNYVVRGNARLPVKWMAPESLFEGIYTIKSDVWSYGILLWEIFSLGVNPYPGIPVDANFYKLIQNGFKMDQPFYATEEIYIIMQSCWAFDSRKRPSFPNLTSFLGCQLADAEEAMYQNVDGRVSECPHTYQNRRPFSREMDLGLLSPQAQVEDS
# Procedure: The in vitro JAK2 and FLT3 kinase activity test was performed on the compounds of the 2-aminopyrimidine backbone of the above formula I (concentration 0.1 μM) according to the present invention using Mobility Shift Assay.
# as §1, §2
# Chain of JAK2 (O60674 whole entry): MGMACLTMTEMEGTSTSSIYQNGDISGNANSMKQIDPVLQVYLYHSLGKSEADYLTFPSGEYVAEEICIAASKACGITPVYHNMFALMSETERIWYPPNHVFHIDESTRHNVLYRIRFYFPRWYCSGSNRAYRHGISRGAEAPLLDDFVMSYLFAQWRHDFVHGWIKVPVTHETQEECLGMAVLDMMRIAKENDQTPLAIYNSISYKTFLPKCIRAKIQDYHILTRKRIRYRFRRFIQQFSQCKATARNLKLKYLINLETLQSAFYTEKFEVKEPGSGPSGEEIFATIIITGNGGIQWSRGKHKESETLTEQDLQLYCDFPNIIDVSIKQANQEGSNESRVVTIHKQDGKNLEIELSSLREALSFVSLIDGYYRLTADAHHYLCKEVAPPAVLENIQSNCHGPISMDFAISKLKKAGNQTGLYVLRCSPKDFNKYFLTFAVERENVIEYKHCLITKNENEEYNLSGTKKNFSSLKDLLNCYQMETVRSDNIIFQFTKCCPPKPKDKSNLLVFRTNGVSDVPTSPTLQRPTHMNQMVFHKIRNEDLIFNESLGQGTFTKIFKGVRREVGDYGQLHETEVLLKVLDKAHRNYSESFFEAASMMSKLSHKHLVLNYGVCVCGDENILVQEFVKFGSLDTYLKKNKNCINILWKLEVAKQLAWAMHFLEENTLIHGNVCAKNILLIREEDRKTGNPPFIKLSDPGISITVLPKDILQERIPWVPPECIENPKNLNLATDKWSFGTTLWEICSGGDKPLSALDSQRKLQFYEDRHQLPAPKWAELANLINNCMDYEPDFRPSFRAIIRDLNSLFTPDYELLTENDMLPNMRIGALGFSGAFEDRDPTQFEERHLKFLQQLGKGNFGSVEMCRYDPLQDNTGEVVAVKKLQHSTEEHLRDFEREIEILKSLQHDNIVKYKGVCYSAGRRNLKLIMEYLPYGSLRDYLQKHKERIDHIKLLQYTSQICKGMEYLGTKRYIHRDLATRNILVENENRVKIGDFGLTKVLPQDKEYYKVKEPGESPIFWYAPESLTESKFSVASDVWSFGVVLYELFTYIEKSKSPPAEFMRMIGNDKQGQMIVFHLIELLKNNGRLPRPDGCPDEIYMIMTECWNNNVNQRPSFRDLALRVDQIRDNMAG
Structure (SMILES),inhibition at 0.1 µM (JAK2) [%],IC50 [1] [µM],IC50 [2] [µM],inhibition at 0.1 µM (FLT3) [%]
"C1=C/COCc2cc(ccc2OCCN2CCCC2)Nc2nccc(n2)-c2cccc(c2)COC/1 [Pacritinib, reference compound]",92,1.1,0.023,–
"Cc1cnc(Nc2ccc(OCCN3CCCC3)cc2)nc1Nc1cccc(S(=O)(=O)NC(C)(C)C)c1 [Fedratinib, reference compound]",95.2,0.89,0.068,88.7
"CC(=O)c1ccc(NC(=O)C2CCN(c3nc(Nc4ccc(N5CCOCC5)cc4)ncc3C)CC2)cc1 [Example 33, N-(4-acetylphenyl)-1-(5-methyl-2-{[4-(morpholin-4-yl)phenyl]amino}pyrimidin-4-yl)piperidine-4-carboxamide]",74.3,1.7,0.062,97
"CC(=O)c1ccc(NC(=O)N2CCN(c3ccnc(Nc4ccc(N5CCOCC5)cc4)n3)CC2)cc1 [Example 6, N-(4-acetylphenyl)-4-(2-{[4-(morpholin-4-yl)phenyl]amino}pyrimidin-4-yl)piperazine-1-carboxamide]",76.7,4.3,0.077,72.3
"CC(=O)c1ccc(NC(=O)N2CCN(c3nc(Nc4ccc(N5CCOCC5)cc4)ncc3C(F)(F)F)CC2)cc1 [Example 26, N-(4-acetylphenyl)-4-(5-trifluoromethyl-2-{[4-(morpholin-4-yl)phenyl]amino}pyrimidin-4-yl)piperazine-1-carboxamide]",74.6,4.6,0.083,82.5
"CC(=O)c1ccc(NC(=O)N2CCN(c3nc(Nc4ccc(N5CCOCC5)cc4)ncc3C)CC2)cc1 [Example 22, N-(4-acetylphenyl)-4-(5-methyl-2-{[4-(morpholin-4-yl)phenyl]amino}pyrimidin-4-yl)piperazine-1-carboxamide]",81.8,0.8,0.042,99.1
"CC(=O)c1ccc(NC(=O)N2CCC(Nc3nc(Nc4ccc(N5CCOCC5)cc4)ncc3C)CC2)cc1 [Example 32, N-(4-acetylphenyl)-4-[(5-methyl-2-{[4-(morpholin-4-yl)phenyl]amino}pyrimidin-4-yl)amino]piperidine-1-carboxamide]",80.5,6.7,0.35,78.6
"Cc1cnc(Nc2ccc(N3CCOCC3)cc2)nc1N1CCN(C(=O)Nc2ccc(C#N)cc2)CC1 [Example 20, N-(4-cyanophenyl)-4-(5-methyl-2-{[4-(morpholin-4-yl)phenyl]amino}pyrimidin-4-yl)piperazine-1-carboxamide]",88.5,0.9,0.072,95.2
